From ChEMBL document CHEMBL5291721, “A preclinical secondary pharmacology resource illuminates target-adverse drug reaction associations of marketed drugs” (Nat Commun, 2023)

Assays:
[1] = target: T1, Amine oxidase [flavin-containing] A (Homo sapiens, UniProt P21397); assay type: functional
T1 sequence (P21397 whole entry): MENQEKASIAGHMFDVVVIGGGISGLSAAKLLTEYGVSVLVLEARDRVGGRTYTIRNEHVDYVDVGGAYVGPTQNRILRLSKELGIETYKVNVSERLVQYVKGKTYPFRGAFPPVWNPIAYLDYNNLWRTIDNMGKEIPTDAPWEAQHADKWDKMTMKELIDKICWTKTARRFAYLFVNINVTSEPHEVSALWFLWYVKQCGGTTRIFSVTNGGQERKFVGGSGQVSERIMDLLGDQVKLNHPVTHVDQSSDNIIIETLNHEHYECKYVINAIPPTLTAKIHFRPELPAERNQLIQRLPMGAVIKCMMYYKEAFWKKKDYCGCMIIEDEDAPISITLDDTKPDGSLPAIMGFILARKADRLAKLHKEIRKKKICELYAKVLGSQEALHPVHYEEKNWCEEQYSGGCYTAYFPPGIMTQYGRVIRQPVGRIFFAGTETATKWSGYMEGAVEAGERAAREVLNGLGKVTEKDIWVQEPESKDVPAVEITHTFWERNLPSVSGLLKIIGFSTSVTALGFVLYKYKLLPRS

[2] = target: T2, 5-hydroxytryptamine receptor 1A (Homo sapiens, UniProt P08908); assay type: functional, cell-based
T2 sequence (P08908 whole entry): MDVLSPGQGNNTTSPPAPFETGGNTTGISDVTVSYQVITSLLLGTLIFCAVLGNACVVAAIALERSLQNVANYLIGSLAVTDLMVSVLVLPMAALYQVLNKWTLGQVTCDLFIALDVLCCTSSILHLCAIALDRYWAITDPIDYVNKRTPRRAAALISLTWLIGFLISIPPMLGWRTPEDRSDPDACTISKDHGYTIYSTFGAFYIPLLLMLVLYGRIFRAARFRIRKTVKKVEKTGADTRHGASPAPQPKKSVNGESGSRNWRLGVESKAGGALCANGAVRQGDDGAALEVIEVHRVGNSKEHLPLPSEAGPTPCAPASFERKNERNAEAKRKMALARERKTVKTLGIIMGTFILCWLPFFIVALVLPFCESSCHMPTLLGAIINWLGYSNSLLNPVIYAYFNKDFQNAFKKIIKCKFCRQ

[3] = target: T3, Alpha-1A adrenergic receptor (Homo sapiens, UniProt P35348); assay type: functional, cell-based
T3 sequence (P35348 whole entry): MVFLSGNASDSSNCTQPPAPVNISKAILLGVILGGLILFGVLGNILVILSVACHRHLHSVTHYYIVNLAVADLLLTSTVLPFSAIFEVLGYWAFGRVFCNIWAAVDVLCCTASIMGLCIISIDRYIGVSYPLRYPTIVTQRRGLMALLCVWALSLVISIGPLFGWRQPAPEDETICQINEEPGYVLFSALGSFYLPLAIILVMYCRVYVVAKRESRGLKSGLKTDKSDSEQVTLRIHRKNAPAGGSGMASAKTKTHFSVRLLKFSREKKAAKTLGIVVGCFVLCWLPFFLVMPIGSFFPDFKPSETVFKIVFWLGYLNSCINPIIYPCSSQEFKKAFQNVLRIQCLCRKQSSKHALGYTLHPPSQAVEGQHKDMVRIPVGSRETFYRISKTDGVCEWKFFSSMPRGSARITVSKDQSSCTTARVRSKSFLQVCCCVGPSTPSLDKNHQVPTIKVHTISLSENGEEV

[4] = target: Histamine H2 receptor (Homo sapiens, UniProt P25021); assay type: functional, cell-based
Chain of Histamine H2 receptor (P25021 whole entry): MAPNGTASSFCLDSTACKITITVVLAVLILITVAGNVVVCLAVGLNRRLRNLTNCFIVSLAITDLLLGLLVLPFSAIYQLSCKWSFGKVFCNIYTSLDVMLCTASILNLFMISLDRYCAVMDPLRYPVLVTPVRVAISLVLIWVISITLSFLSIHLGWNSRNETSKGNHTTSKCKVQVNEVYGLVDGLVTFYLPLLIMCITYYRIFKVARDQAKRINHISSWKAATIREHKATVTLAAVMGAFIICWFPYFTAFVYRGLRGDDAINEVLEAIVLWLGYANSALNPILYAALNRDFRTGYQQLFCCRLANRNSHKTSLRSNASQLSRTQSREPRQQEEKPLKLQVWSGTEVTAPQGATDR

[5] = target: T4, B2 bradykinin receptor (Homo sapiens, UniProt P30411)
T4 sequence (P30411 whole entry): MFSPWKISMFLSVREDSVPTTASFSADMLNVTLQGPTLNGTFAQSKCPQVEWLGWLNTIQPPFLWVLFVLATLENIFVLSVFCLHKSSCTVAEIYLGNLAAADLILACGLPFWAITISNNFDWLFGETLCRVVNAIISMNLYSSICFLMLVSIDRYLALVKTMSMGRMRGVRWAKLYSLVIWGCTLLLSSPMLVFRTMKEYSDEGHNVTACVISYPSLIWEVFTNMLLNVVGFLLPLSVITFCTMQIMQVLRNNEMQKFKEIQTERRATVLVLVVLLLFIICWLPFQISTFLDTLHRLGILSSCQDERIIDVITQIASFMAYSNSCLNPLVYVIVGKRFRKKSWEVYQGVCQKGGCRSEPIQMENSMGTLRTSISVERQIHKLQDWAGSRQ

[6] = target: cGMP-inhibited 3',5'-cyclic phosphodiesterase 3A (Homo sapiens, UniProt Q14432); assay type: functional
Chain of cGMP-inhibited 3',5'-cyclic phosphodiesterase 3A (Q14432 whole entry): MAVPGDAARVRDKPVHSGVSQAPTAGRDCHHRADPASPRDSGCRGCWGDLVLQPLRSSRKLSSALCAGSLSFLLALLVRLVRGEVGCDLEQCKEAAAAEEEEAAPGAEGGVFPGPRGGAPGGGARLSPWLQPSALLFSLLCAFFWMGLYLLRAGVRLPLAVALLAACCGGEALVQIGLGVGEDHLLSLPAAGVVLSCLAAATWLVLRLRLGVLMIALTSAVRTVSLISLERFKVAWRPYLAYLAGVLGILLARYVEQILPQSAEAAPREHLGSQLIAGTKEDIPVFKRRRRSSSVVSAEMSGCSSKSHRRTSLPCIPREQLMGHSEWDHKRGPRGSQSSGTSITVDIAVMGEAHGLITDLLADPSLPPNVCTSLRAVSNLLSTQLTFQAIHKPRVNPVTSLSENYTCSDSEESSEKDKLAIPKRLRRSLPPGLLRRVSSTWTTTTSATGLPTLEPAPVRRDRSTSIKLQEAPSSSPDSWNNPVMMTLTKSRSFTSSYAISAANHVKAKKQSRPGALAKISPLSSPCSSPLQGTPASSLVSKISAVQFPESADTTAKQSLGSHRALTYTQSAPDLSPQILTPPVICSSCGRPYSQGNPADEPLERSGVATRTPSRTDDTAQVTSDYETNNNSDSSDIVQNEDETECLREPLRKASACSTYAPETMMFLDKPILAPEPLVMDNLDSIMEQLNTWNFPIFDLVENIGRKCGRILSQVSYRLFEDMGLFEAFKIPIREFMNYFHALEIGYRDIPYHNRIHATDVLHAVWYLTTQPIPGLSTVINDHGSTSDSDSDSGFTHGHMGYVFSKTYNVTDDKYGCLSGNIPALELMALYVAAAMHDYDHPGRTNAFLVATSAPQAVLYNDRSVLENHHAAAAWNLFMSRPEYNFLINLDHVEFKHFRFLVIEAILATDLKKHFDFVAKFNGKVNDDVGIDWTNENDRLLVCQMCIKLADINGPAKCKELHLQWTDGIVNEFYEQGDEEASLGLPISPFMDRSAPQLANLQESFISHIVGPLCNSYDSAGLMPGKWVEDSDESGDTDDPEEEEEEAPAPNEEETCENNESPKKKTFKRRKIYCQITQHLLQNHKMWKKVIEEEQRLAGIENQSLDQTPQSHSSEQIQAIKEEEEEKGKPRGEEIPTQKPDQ

[7] = target: Kappa-type opioid receptor (Homo sapiens, UniProt P41145)
Chain of Kappa-type opioid receptor (P41145 whole entry): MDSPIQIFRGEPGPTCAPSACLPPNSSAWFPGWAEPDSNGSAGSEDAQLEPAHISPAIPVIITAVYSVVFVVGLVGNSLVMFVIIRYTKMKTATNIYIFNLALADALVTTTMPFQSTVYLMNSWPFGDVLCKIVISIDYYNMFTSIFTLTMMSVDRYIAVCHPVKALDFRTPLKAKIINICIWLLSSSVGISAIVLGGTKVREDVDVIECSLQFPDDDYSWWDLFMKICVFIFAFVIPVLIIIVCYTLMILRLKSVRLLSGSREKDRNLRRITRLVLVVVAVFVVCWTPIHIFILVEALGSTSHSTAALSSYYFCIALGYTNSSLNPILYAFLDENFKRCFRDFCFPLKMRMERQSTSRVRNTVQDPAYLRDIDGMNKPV

[8] = target: Growth hormone secretagogue receptor type 1 (Homo sapiens, UniProt Q92847)
Chain of Growth hormone secretagogue receptor type 1 (Q92847 whole entry): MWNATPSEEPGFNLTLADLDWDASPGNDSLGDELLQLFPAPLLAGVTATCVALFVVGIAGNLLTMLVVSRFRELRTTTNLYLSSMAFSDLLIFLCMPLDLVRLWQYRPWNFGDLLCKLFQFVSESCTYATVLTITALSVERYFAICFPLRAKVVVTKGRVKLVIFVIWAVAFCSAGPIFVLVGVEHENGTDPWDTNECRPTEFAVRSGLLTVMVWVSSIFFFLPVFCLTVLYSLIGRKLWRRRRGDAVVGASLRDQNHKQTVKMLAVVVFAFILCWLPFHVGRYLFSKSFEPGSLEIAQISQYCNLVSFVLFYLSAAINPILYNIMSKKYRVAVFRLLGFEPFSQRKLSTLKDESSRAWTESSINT

[9] = target: Voltage-gated inwardly rectifying potassium channel KCNH2 (Homo sapiens, UniProt Q12809); assay type: functional; conditions: read-out: AC50
Chain of Voltage-gated inwardly rectifying potassium channel KCNH2 (Q12809 whole entry): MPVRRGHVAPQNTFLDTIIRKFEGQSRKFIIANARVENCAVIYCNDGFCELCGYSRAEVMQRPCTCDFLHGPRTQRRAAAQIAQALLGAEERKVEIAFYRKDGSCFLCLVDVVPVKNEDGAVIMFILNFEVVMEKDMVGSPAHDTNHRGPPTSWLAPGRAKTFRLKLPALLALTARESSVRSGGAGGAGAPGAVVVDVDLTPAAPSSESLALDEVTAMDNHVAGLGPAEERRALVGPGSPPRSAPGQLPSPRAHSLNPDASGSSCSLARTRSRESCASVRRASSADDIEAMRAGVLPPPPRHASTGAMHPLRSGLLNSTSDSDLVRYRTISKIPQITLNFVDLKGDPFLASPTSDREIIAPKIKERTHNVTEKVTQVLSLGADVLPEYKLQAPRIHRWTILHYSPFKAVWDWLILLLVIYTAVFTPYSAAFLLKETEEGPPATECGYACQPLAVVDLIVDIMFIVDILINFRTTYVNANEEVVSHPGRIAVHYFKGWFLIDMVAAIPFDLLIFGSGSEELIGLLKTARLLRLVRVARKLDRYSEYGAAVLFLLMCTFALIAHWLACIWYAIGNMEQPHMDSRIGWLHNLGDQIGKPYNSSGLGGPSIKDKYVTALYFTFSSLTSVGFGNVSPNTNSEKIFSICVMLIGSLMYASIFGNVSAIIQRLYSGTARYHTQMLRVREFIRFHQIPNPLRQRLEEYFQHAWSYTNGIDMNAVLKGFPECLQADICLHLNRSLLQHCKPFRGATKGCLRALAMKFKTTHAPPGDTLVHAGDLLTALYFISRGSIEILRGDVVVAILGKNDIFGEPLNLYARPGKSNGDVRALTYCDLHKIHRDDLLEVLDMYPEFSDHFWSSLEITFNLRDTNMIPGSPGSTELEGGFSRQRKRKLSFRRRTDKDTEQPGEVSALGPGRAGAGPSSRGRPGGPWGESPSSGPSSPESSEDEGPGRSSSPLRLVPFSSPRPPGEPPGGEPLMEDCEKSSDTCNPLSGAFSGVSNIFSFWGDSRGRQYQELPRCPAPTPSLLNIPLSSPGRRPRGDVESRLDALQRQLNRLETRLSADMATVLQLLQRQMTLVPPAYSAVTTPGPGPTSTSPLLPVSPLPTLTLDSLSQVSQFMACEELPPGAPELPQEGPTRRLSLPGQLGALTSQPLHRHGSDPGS
Also: assay procedure not described here.

Structure (SMILES) | AC50 [1] [µM] | AC50 [2] [µM] | AC50 [3] [µM] | AC50 [4] [µM] | AC50 [5] [µM] | AC50 [6] [µM] | AC50 [7] [µM] | AC50 [8] [µM] | AC50 [9] [µM]
CC(C)c1c(C(=O)Nc2ccccc2)c(-c2ccccc2)c(-c2ccc(F)cc2)n1CC[C@@H](O)C[C@@H](O)CC(=O)O [ATORVASTATIN] | > 10 | > 10 | > 30 | > 10 | > 30 | > 10 | > 10 | > 30 | –
CCCCN1CCCCC1C(=O)Nc1c(C)cccc1C (stereo unspecified) [BUPIVACAINE] | > 30 | > 30 | – | > 30 | > 30 | > 30 | > 30 | > 30 | 11
CC(=O)O[C@@]12CO[C@@H]1C[C@H](O)[C@@]1(C)C(=O)[C@H](O)C3=C(C)[C@@H](OC(=O)[C@H](O)[C@@H](NC(=O)OC(C)(C)C)c4ccccc4)C[C@@](O)([C@@H](OC(=O)c4ccccc4)[C@H]21)C3(C)C [DOCETAXEL ANHYDROUS] | > 30 | > 30 | – | > 30 | > 30 | > 30 | > 30 | > 30 | > 30
CCNC(C)Cc1cccc(C(F)(F)F)c1 (stereo unspecified) [FENFLURAMINE] | > 10 | – | – | – | > 30 | > 30 | 13.4 | > 30 | > 30
COc1c(N2CCNC(C)C2)c(F)cc2c(=O)c(C(=O)O)cn(C3CC3)c12 (stereo unspecified) [GATIFLOXACIN] | > 10 | > 10 | – | > 30 | > 10 | > 30 | > 10 | > 10 | 24
CCN1CCC[C@H]1CNC(=O)c1cc(S(N)(=O)=O)ccc1OC [LEVOSULPIRIDE] | > 10 | – | > 30 | > 10 | > 30 | > 30 | > 10 | > 30 | > 30
COc1ccccc1OCC(O)COC(N)=O (stereo unspecified) [METHOCARBAMOL] | > 10 | > 10 | – | > 10 | > 10 | > 30 | > 10 | > 10 | > 30
COc1c(C)c2c(c(O)c1C/C=C(\C)CCC(=O)OCCN1CCOCC1)C(=O)OC2 [MYCOPHENOLATE MOFETIL] | > 30 | – | > 30 | > 30 | > 30 | 17 | > 30 | > 30 | 13
CCN(CC)CCOC(=O)c1ccc(N)cc1 [PROCAINE] | 16 | – | > 30 | > 10 | > 30 | > 10 | > 10 | > 30 | > 30
CCCOc1ccc(C(=O)OCCN(CC)CC)cc1N [PROPARACAINE] | 11 | – | > 30 | > 30 | > 30 | > 30 | > 30 | > 30 | 6.4
C#CCN(C)[C@H](C)Cc1ccccc1 [SELEGILINE] | – | – | > 30 | > 10 | > 10 | > 30 | 7.8 | > 10 | > 30
CN[C@@H]1[C@H](O)[C@H](NC)[C@H]2O[C@@]3(O)C(=O)C[C@@H](C)O[C@H]3O[C@@H]2[C@H]1O [SPECTINOMYCIN] | > 10 | > 30 | – | > 10 | > 10 | > 30 | > 10 | > 10 | > 30
CC[C@]1(O)C[C@@H]2CN(CCc3c([nH]c4ccccc34)[C@@](C(=O)OC)(c3cc4c(cc3OC)N(C)[C@H]3[C@@](O)(C(N)=O)[C@H](O)[C@]5(CC)C=CCN6CC[C@]43[C@@H]65)C2)C1 [VINDESINE] | > 30 | – | > 30 | > 30 | > 30 | > 30 | > 30 | 6.5 | 14.9
